Experimental data from patent US20100285038A1, “Factor Involved in Metastasis and Uses Thereof” (priority 2002, published 2010).

Experiments:
[1] = system: Akt and phosphorylated Akt (P*Akt); assay: Western blot analysis of Akt and phosphorylated Akt in PC-3 cells; type: cell-based, human; conditions: DMSO as control (FIG. 9A)
Description: (§1) To investigate whether PI 3-kinase activity has an impact on PRF1 protein expression, PC-3 cells were treated either with LY294002 or with DMSO as control. Analysis was performed by Western Blot analysis using the polyclonal antibody as detection means for PRF1 protein. Apart from PRF1 protein, also expression of Akt and phosphorylated Akt (P*Akt) was monitored using respective specific antibodies. Additionally, the expression of p110α and p85 was monitored.

PRF1 protein = assay: Western blot analysis of PRF1 protein expression in PC-3 cells; type: cell-based, human; conditions: PC-3 cells; after 72 and 96 h; DMSO as control (FIG. 9A)
Description: A polyclonal antibody was generated against PRF1 using standard techniques. The polyclonal antibody thus obtained was tested for its specificity for PRF1. For that purpose, cell lysates from PC-3 cells treated with PRF1 specific antisense molecules, more particularly gene blocks, or mismatches thereof and cells transfected with expression plasmides for recombinant HA-tagged PRF1 were prepared. The lysates were analysed by Western blot analysis using the polyclonal antibody and the results are depicted in FIG. 8 A.
as §1
To investigate whether the expression of PRF1 at the protein level would also be dependent on Akt (PKB) activity and HIF1α activity PC-3 cells were treated with Akt specific antisense molecules. More particularly, two antisense molecules, designated Akt1-GB and Akt2-molecule were used with the readout being the same as discussed in connection with FIG. 9, whereby, additionally, the HIF1α protein expression was monitored using a commercially available protein G-purified polyclonal antibody (R&DSystems, Lot Number: IUGO13071).
The same experiment using the same markers for monitoring except Akt and P*-Akt was carried out with cells grown under hypoxic conditions which was realized by treating the cells with CoCl2. Two different forms of antisense molecules, namely HIF1α-GB66 and HIF1α-GB67 were used and respective mismatches used as controls.
A lane of the Blot represents the cell lysate of the cells shown in the corresponding photograph. As a read-out, p110 alpha and p85 are shown as loading control and the component of the PI-3K pathway investigated, i.e. AKT, monitored as P*AKT, HIF1 alpha and PRF1.

O=c1cc(N2CCOCC2)oc2c(-c3ccccc3)cccc12 [LY294002, 2-(4-morpholinyl)-8-phenylchromone]
Akt and phosphorylated Akt [1]: down regulated
PRF1 protein expression (PRF1 protein): down regulated
